Test results: PubChem BioAssay AID330 (DTP/NCI, 2004)
“And” between values parts separate entries of the source, which are not always exact repeats. Equal entries are not always repeated. Toxic doses and inconclusive results are not listed. The calls were made as follows: active = survival T/C of 150% or more; inactive = T/C below 125% in these data. Bridge positions count the residues as written; N and C are the ends. Peptide text beside a SMILES is read from it. I, II: the chains in the order shown.

System: P388 leukemia ip, CD2F1 mice, survival T/C
Test: NCI In Vivo Anticancer Drug Screen. Data for tumor model P388 Leukemia (intraperitoneal) in CD2F1 (CDF1) mice
Settings: endpoint: median survival time, higher = longer survival
Method in brief: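 Mice carrying the transplanted tumor received test compound or vehicle. Survival was recorded in each group, and the value is the treated-group measurement divided by that of the vehicle-treated control group.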

[1] = dose: 12.5 mg/kg/injection, schedule: Q01DX009 (ip), vehicle: saline with Tween-80
[2] = dose: 25.0 mg/kg/injection, schedule: Q01DX009 (ip), vehicle: saline with Tween-80
[3] = dose: 50.0 mg/kg/injection, schedule: Q01DX009 (ip), vehicle: saline with Tween-80
[4] = dose: 100.0 mg/kg/injection, schedule: Q01DX009 (ip), vehicle: saline with Tween-80
[5] = dose: 50.0 mg/kg/injection, schedule: Q01DX005 (ip), vehicle: saline with Tween-80
[6] = dose: 100.0 mg/kg/injection, schedule: Q01DX005 (ip), vehicle: saline with Tween-80
[7] = dose: 200.0 mg/kg/injection, schedule: Q01DX005 (ip), vehicle: saline with Tween-80
[8] = dose: 12.5 mg/kg/injection, schedule: Q04DX003 (ip), vehicle: saline
[9] = dose: 25.0 mg/kg/injection, schedule: Q04DX003 (ip), vehicle: saline

Measured: T/C

O=C(O)c1ccc(SSc2ccc(C(=O)O)cc2)cc1
inactive: [1] 97 % of control | [2] 106 % of control | [3] 103 % of control | [4] 111 % of control

Clc1ccc(N=NN2CCc3ccccc3C2)cc1
inactive: dose: 50.0 mg/kg/injection, schedule: Q01DX009 (ip), vehicle: Klucel (hydroxypropylcellulose) (HPC) 99 % of control | dose: 100.0 mg/kg/injection, schedule: Q01DX009 (ip), vehicle: Klucel (hydroxypropylcellulose) (HPC) 99 % of control | dose: 200.0 mg/kg/injection, schedule: Q01DX009 (ip), vehicle: Klucel (hydroxypropylcellulose) (HPC) 93 % of control

CC(C)CC(NC(=O)C(N)CSSCC(N)C(=O)NC(CC(C)C)C(=O)O)C(=O)O (stereo not drawn) (I: H-Cys-Leu-OH / II: H-Cys-Leu-OH; disulfide I:1-II:1; configuration not given here)
inactive: dose: 50.0 mg/kg/injection, schedule: Q01DX005 (ip), vehicle: Klucel (hydroxypropylcellulose) (HPC) 106 % of control | dose: 100.0 mg/kg/injection, schedule: Q01DX005 (ip), vehicle: Klucel (hydroxypropylcellulose) (HPC) 113 % of control | dose: 200.0 mg/kg/injection, schedule: Q01DX005 (ip), vehicle: Klucel (hydroxypropylcellulose) (HPC) 92 % of control

Cc1ccc(NCC2CCCN3CCCCC23)c2c(=O)c3ccccc3sc12 (stereo not drawn)
inactive: [5] 101 % of control | dose: 50.0 mg/kg/injection, schedule: Q01DX009 (ip), vehicle: saline 97 % of control | [6] 96 % of control | dose: 100.0 mg/kg/injection, schedule: Q01DX009 (ip), vehicle: saline 99 % of control | [7] 106 % of control | dose: 200.0 mg/kg/injection, schedule: Q01DX009 (ip), vehicle: saline 124 % of control

C1CCN(CCC[Si]23OCCN(CCO2)CCO3)C1
inactive: [5] 108 % of control | [6] 108 % of control | [7] 109 % of control

N=C1C=CC(=C(c2ccc(N)cc2)c2ccc(N)cc2)C=C1
inactive: dose: 6.25 mg/kg/injection, schedule: Q01DX005 (ip), vehicle: saline with Tween-80 98 % of control | dose: 12.5 mg/kg/injection, schedule: Q01DX005 (ip), vehicle: saline with Tween-80 98 % of control

CC1(C)CC(=O)C(C(c2cccc(O)c2O)C2C(=O)CC(C)(C)CC2=O)C(=O)C1
inactive: [1] 100 % of control and 96 % of control | [2] 92 % of control | [3] 93 % of control and 96 % of control | [4] 92 % of control and 94 % of control

Cc1ccc(C(=O)CC(O)(C(F)(F)F)C(F)(F)F)cc1
inactive: dose: 100.0 mg/kg/injection, schedule: Q04DX003 (ip), vehicle: other 100 % of control | dose: 200.0 mg/kg/injection, schedule: Q04DX003 (ip), vehicle: other 118 % of control | dose: 400.0 mg/kg/injection, schedule: Q04DX003 (ip), vehicle: other 122 % of control

CCCCCCCCCCCCCCCCCC(=O)NCNC(=O)CCCCCCCCCCCCCCCCC
inactive: dose: 4.68 mg/kg/injection, schedule: Q01DX009 (ip), vehicle: saline with Tween-80 100 % of control | dose: 9.37 mg/kg/injection, schedule: Q01DX009 (ip), vehicle: saline with Tween-80 100 % of control | dose: 9.37 mg/kg/injection, schedule: Q04DX003 (ip), vehicle: saline 100 % of control | dose: 18.75 mg/kg/injection, schedule: Q01DX009 (ip), vehicle: saline with Tween-80 90 % of control | dose: 18.75 mg/kg/injection, schedule: Q04DX003 (ip), vehicle: saline 95 % of control

[Cu+2].[NH-]CC(=O)NC(Cc1ccccc1)C(=O)O.[NH-]CC(=O)NC(Cc1ccccc1)C(=O)O (stereo not drawn)
inactive: [8] 93 % of control | [9] 90 % of control | dose: 50.0 mg/kg/injection, schedule: Q04DX003 (ip), vehicle: saline 100 % of control

CCOC(=O)Cn1c(O)c(C2=c3cc(Br)ccc3=NC2=O)sc1=O
inactive: dose: 100.0 mg/kg/injection, schedule: Q01DX001 (ip), vehicle: Klucel (hydroxypropylcellulose) (HPC) 95 % of control | dose: 200.0 mg/kg/injection, schedule: Q01DX001 (ip), vehicle: Klucel (hydroxypropylcellulose) (HPC) 98 % of control | dose: 400.0 mg/kg/injection, schedule: Q01DX001 (ip), vehicle: Klucel (hydroxypropylcellulose) (HPC) 99 % of control

CN(C)CCCC[N+](C)(C)Cc1ccc(C[N+](C)(C)CCCC[N+](C)(C)Cc2ccc(CCl)cc2)cc1
inactive: dose: 3.12 mg/kg/injection, schedule: Q04DX003 (ip), vehicle: saline 100 % of control | dose: 6.25 mg/kg/injection, schedule: Q04DX003 (ip), vehicle: saline 94 % of control | [8] 100 % of control and 111 % of control and 96 % of control | [9] 100 % of control and 113 % of control
